{"source": "ChEMBL document CHEMBL3885861", "about": "“Open TG-GATES”", "organism": "Rattus norvegicus", "assay": "Open TG-GATES - Regimen: Single", "assay_type": "toxicity, organism-based, Sprague-Dawley", "set-up": "regimen Single, gender Male, age 6 weeks", "conditions": "in vivo, iv, 1 mg/kg, route intravenous injection, dose level Low; for APTT / Bas / Eos / Fbg / Hb / Ht / Lym / MCH / MCHC / MCV / Mono / Neu / PT / Plat / RBC / Ret / WBC: tissue Blood; for KIDNEY_L / KIDNEY_R / KIDNEY_TOTAL: tissue Kidney; for LIVER: tissue Liver", "data": [{"compound": "C[C@@H]1C[C@@H]([C@H](O)CC2CC(=O)NC(=O)C2)C(=O)[C@@H](C)C1", "note": "[CYCLOHEXIMIDE]", "values": [{"measurement": "Na", "setting": "6 h, tissue Plasma", "result": 140.8, "unit": "meq/L"}, {"measurement": "PL", "setting": "6 h, tissue Plasma", "result": 74, "unit": "mg/dL"}, {"measurement": "RALB", "setting": "6 h, tissue Plasma", "result": 3, "unit": "g/dL"}, {"measurement": "TBIL", "setting": "6 h, tissue Plasma", "result": 0.01, "unit": "mg/dL"}, {"measurement": "TC", "setting": "6 h, tissue Plasma", "result": 42.8, "unit": "mg/dL"}, {"measurement": "TG", "setting": "6 h, tissue Plasma", "result": 83.8, "unit": "mg/dL"}, {"measurement": "TP", "setting": "6 h, tissue Plasma", "result": 5, "unit": "g/dL"}, {"measurement": "gamma-GTP", "setting": "6 h, tissue Plasma", "result": 1.4, "unit": "IU/L"}, {"measurement": "TERMINAL_BW", "setting": "9 h", "result": 216, "unit": "g"}, {"measurement": "APTT", "setting": "9 h", "result": 26, "unit": "s"}, {"measurement": "Bas", "setting": "9 h", "result": 0, "unit": "%"}, {"measurement": "Eos", "setting": "9 h", "result": 0, "unit": "%"}, {"measurement": "Fbg", "setting": "9 h", "result": 276.6, "unit": "mg/dL"}, {"measurement": "Hb", "setting": "9 h", "result": 13.8, "unit": "g/dL"}, {"measurement": "Ht", "setting": "9 h", "result": 41.2, "unit": "%"}, {"measurement": "Lym", "setting": "9 h", "result": 70.2, "unit": "%"}, {"measurement": "MCH", "setting": "9 h", "result": 21.1, "unit": "pg"}, {"measurement": "MCHC", "setting": "9 h", "result": 33.4, "unit": "%"}, {"measurement": "MCV", "setting": "9 h", "result": 63.1, "unit": "fL"}, {"measurement": "Mono", "setting": "9 h", "result": 1.8, "unit": "%"}, {"measurement": "Neu", "setting": "9 h", "result": 26.8, "unit": "%"}, {"measurement": "PT", "setting": "9 h", "result": 20.4, "unit": "s"}, {"measurement": "Plat", "setting": "9 h", "result": 122.9, "unit": "x10_4/uL"}, {"measurement": "RBC", "setting": "9 h", "result": 653.8, "unit": "x10_4/ul"}, {"measurement": "Ret", "setting": "9 h", "result": 7, "unit": "%"}, {"measurement": "WBC", "setting": "9 h", "result": 187.2, "unit": "x10_2/uL"}, {"measurement": "KIDNEY_L", "setting": "9 h", "result": 0.9, "unit": "g"}, {"measurement": "KIDNEY_R", "setting": "9 h", "result": 0.9, "unit": "g"}, {"measurement": "KIDNEY_TOTAL", "setting": "9 h", "result": 1.9, "unit": "g"}, {"measurement": "LIVER", "setting": "9 h", "result": 8.9, "unit": "g"}, {"measurement": "A/G", "setting": "9 h, tissue Plasma", "result": 1.4}, {"measurement": "ALP", "setting": "9 h, tissue Plasma", "result": 1037.4, "unit": "IU/L"}, {"measurement": "ALT", "setting": "9 h, tissue Plasma", "result": 39.6, "unit": "IU/L"}, {"measurement": "AST", "setting": "9 h, tissue Plasma", "result": 78.2, "unit": "IU/L"}, {"measurement": "BUN", "setting": "9 h, tissue Plasma", "result": 16, "unit": "mg/dL"}, {"measurement": "CRE", "setting": "9 h, tissue Plasma", "result": 0.1, "unit": "mg/dL"}, {"measurement": "Ca", "setting": "9 h, tissue Plasma", "result": 9.5, "unit": "mg/dL"}, {"measurement": "Cl", "setting": "9 h, tissue Plasma", "result": 106.2, "unit": "meq/L"}, {"measurement": "DBIL", "setting": "9 h, tissue Plasma", "result": 0.008, "unit": "mg/dL"}, {"measurement": "GLC", "setting": "9 h, tissue Plasma", "result": 162.6, "unit": "mg/dL"}, {"measurement": "IP", "setting": "9 h, tissue Plasma", "result": 8.9, "unit": "mg/dL"}, {"measurement": "K", "setting": "9 h, tissue Plasma", "result": 3.9, "unit": "meq/L"}, {"measurement": "LDH", "setting": "9 h, tissue Plasma", "result": 205, "unit": "IU/L"}, {"measurement": "Na", "setting": "9 h, tissue Plasma", "result": 140.4, "unit": "meq/L"}, {"measurement": "PL", "setting": "9 h, tissue Plasma", "result": 90, "unit": "mg/dL"}, {"measurement": "RALB", "setting": "9 h, tissue Plasma", "result": 2.8, "unit": "g/dL"}, {"measurement": "TBIL", "setting": "9 h, tissue Plasma", "result": 0.022, "unit": "mg/dL"}, {"measurement": "TC", "setting": "9 h, tissue Plasma", "result": 56.2, "unit": "mg/dL"}, {"measurement": "TG", "setting": "9 h, tissue Plasma", "result": 38.4, "unit": "mg/dL"}, {"measurement": "TP", "setting": "9 h, tissue Plasma", "result": 4.8, "unit": "g/dL"}, {"measurement": "gamma-GTP", "setting": "9 h, tissue Plasma", "result": 1, "unit": "IU/L"}, {"measurement": "TERMINAL_BW", "setting": "24 h", "result": 227.7, "unit": "g"}, {"measurement": "APTT", "setting": "24 h", "result": 23.9, "unit": "s"}, {"measurement": "Bas", "setting": "24 h", "result": 0, "unit": "%"}, {"measurement": "Eos", "setting": "24 h", "result": 0.2, "unit": "%"}, {"measurement": "Fbg", "setting": "24 h", "result": 334.6, "unit": "mg/dL"}, {"measurement": "Hb", "setting": "24 h", "result": 13.2, "unit": "g/dL"}, {"measurement": "Ht", "setting": "24 h", "result": 39.8, "unit": "%"}, {"measurement": "Lym", "setting": "24 h", "result": 85.4, "unit": "%"}, {"measurement": "MCH", "setting": "24 h", "result": 20.5, "unit": "pg"}, {"measurement": "MCHC", "setting": "24 h", "result": 33.1, "unit": "%"}, {"measurement": "MCV", "setting": "24 h", "result": 61.8, "unit": "fL"}, {"measurement": "Mono", "setting": "24 h", "result": 2, "unit": "%"}, {"measurement": "Neu", "setting": "24 h", "result": 10.6, "unit": "%"}, {"measurement": "PT", "setting": "24 h", "result": 16.8, "unit": "s"}, {"measurement": "Plat", "setting": "24 h", "result": 115.4, "unit": "x10_4/uL"}, {"measurement": "RBC", "setting": "24 h", "result": 643.4, "unit": "x10_4/ul"}, {"measurement": "Ret", "setting": "24 h", "result": 6, "unit": "%"}, {"measurement": "WBC", "setting": "24 h", "result": 148.3, "unit": "x10_2/uL"}, {"measurement": "KIDNEY_L", "setting": "24 h", "result": 1, "unit": "g"}, {"measurement": "KIDNEY_R", "setting": "24 h", "result": 1, "unit": "g"}, {"measurement": "KIDNEY_TOTAL", "setting": "24 h", "result": 2, "unit": "g"}, {"measurement": "LIVER", "setting": "24 h", "result": 10.9, "unit": "g"}, {"measurement": "A/G", "setting": "24 h, tissue Plasma", "result": 1.3}, {"measurement": "ALP", "setting": "24 h, tissue Plasma", "result": 1100.2, "unit": "IU/L"}, {"measurement": "ALT", "setting": "24 h, tissue Plasma", "result": 31.2, "unit": "IU/L"}, {"measurement": "AST", "setting": "24 h, tissue Plasma", "result": 53.4, "unit": "IU/L"}, {"measurement": "BUN", "setting": "24 h, tissue Plasma", "result": 12.2, "unit": "mg/dL"}, {"measurement": "CRE", "setting": "24 h, tissue Plasma", "result": 0.2, "unit": "mg/dL"}, {"measurement": "Ca", "setting": "24 h, tissue Plasma", "result": 10.2, "unit": "mg/dL"}, {"measurement": "Cl", "setting": "24 h, tissue Plasma", "result": 107.6, "unit": "meq/L"}, {"measurement": "DBIL", "setting": "24 h, tissue Plasma", "result": 0.006, "unit": "mg/dL"}, {"measurement": "GLC", "setting": "24 h, tissue Plasma", "result": 197.2, "unit": "mg/dL"}, {"measurement": "IP", "setting": "24 h, tissue Plasma", "result": 6.6, "unit": "mg/dL"}]}]}
